Data as given in ChEMBL document CHEMBL5291721, “A preclinical secondary pharmacology resource illuminates target-adverse drug reaction associations of marketed drugs” (Nat Commun, 2023).

Key:
[1] = molecular target: D(3) dopamine receptor (Homo sapiens, UniProt P35462)
[2] = molecular target: Gamma-aminobutyric acid receptor subunit alpha-1/alpha-2/beta-2/gamma-2 (Homo sapiens, UniProt P14867+P18507+P47869+P47870); format: protein-complex assay
[3] = molecular target: T1, D(1A) dopamine receptor (Homo sapiens, UniProt P21728)
[4] = molecular target: Gamma-aminobutyric acid receptor subunit alpha-1 (Rattus norvegicus, UniProt P62813); format: functional
[5] = molecular target: Melanocortin receptor 3 (Homo sapiens, UniProt P41968)
[6] = molecular target: Histamine H3 receptor (Homo sapiens, UniProt Q9Y5N1)
[7] = molecular target: T2, Alpha-2B adrenergic receptor (Homo sapiens, UniProt P18089)
T2 sequence (P18089 whole entry): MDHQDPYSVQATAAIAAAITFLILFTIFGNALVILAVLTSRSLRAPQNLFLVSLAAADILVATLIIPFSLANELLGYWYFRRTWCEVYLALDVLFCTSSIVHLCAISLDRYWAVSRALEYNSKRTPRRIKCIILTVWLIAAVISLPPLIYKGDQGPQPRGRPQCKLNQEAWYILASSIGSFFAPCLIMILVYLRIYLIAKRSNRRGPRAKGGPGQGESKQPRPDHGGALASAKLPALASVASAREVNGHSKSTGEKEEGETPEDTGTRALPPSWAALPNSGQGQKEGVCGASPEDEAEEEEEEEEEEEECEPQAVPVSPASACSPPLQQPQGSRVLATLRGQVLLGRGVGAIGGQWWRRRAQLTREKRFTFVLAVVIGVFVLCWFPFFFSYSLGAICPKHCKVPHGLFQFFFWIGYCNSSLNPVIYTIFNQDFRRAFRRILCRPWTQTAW

[8] = molecular target: T3, Muscarinic acetylcholine receptor M1 (Homo sapiens, UniProt P11229); format: functional
T3 sequence (P11229 whole entry): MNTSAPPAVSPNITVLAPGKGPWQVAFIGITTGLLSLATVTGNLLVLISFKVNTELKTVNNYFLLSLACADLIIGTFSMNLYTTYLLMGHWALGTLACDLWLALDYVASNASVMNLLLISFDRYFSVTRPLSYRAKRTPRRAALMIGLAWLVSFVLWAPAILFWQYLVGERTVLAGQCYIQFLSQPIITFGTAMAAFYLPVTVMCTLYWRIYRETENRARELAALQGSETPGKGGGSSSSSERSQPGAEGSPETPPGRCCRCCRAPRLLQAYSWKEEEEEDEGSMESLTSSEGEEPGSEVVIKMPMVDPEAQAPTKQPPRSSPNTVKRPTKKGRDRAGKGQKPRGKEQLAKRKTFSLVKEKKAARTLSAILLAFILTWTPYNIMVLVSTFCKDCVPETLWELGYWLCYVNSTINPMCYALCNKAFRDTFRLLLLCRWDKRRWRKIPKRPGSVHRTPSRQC

[9] = molecular target: Beta-2 adrenergic receptor (Homo sapiens, UniProt P07550)
[10] = molecular target: T4, 5-hydroxytryptamine receptor 1A (Homo sapiens, UniProt P08908); format: functional, cell-based
T4 sequence (P08908 whole entry): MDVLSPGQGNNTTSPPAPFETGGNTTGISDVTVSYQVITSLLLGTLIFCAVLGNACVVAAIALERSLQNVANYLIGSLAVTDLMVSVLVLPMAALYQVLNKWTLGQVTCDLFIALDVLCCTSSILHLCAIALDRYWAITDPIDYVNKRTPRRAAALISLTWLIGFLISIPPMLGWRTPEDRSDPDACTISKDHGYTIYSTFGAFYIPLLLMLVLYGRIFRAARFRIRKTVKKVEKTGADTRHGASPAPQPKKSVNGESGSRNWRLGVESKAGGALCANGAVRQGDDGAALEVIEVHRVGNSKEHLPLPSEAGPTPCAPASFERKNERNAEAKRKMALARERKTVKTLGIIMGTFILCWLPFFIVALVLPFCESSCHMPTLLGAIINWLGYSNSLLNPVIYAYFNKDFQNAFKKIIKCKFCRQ

[11] = molecular target: 5-hydroxytryptamine receptor 2A (Homo sapiens, UniProt P28223); format: functional, cell-based
[12] = molecular target: T4, 5-hydroxytryptamine receptor 1A; format: functional, cell-based; remark: listed apart in the source
[13] = molecular target: T5, B2 bradykinin receptor (Homo sapiens, UniProt P30411)
T5 sequence (P30411 whole entry): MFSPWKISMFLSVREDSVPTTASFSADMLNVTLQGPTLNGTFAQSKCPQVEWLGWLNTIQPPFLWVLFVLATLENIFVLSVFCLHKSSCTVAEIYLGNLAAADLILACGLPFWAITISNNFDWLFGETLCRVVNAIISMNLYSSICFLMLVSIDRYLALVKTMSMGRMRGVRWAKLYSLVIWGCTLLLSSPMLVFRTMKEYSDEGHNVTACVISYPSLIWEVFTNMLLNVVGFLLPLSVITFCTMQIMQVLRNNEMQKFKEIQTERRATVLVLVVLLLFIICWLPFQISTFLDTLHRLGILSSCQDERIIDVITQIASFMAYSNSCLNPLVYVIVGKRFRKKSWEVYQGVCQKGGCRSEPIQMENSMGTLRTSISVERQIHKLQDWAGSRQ

[14] = molecular target: T6, Equilibrative nucleoside transporter 1 (Homo sapiens, UniProt Q99808)
T6 sequence (Q99808 whole entry): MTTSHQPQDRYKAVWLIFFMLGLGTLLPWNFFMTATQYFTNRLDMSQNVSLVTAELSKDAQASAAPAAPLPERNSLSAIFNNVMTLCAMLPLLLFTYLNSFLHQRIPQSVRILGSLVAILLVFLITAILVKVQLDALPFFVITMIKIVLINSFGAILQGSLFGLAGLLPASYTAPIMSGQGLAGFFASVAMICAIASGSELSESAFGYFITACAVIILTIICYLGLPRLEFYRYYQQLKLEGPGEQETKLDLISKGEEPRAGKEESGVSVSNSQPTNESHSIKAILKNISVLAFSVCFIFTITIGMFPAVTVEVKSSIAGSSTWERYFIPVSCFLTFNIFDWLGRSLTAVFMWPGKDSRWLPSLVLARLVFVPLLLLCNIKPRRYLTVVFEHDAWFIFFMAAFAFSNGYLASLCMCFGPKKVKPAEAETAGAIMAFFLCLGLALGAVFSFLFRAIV

[15] = molecular target: T1, D(1A) dopamine receptor; format: functional, cell-based
Note: assay procedure not described here.

T1 sequence (P21728 whole entry): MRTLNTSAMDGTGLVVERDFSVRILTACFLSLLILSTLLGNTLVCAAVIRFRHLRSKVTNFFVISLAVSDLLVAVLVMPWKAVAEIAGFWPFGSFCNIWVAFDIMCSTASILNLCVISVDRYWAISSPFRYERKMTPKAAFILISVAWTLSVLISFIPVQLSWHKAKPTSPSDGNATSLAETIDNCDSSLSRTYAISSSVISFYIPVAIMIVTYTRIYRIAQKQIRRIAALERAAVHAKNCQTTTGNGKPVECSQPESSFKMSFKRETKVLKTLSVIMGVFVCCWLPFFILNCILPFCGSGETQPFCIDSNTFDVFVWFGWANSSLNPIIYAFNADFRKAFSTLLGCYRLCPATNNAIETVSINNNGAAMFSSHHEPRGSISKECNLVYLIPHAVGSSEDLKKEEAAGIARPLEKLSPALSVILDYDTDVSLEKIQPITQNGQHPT
Sequence of Gamma-aminobutyric acid receptor subunit alpha-1/alpha-2/beta-2/gamma-2 (P14867 whole entry): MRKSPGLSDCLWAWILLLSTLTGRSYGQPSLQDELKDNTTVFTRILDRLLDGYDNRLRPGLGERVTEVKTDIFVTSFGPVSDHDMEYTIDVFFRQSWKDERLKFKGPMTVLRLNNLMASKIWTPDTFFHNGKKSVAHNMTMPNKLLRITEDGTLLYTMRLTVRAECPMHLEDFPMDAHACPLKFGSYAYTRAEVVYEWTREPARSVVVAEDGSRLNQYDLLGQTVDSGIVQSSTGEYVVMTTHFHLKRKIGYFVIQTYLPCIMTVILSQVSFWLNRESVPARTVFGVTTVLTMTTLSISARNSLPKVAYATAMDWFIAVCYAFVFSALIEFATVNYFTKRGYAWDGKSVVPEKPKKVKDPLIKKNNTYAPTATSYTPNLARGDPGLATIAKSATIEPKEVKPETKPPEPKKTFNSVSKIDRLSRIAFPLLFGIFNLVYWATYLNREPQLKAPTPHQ
Sequence of Gamma-aminobutyric acid receptor subunit alpha-1/alpha-2/beta-2/gamma-2 (P47870 whole entry): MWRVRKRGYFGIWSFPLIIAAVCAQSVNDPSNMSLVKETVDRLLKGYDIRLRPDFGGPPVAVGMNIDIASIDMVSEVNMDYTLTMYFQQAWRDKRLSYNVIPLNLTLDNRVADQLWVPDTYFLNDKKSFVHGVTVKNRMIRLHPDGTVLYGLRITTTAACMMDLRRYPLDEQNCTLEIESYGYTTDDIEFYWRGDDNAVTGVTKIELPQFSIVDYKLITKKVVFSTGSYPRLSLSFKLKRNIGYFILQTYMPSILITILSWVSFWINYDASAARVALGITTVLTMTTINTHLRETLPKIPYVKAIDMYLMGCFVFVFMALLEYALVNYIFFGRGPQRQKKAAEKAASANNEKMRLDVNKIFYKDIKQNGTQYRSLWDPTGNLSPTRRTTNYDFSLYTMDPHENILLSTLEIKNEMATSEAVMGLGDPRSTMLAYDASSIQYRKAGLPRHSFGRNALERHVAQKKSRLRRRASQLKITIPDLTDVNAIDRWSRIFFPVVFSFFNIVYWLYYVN
Sequence of Gamma-aminobutyric acid receptor subunit alpha-1/alpha-2/beta-2/gamma-2 (P18507 whole entry): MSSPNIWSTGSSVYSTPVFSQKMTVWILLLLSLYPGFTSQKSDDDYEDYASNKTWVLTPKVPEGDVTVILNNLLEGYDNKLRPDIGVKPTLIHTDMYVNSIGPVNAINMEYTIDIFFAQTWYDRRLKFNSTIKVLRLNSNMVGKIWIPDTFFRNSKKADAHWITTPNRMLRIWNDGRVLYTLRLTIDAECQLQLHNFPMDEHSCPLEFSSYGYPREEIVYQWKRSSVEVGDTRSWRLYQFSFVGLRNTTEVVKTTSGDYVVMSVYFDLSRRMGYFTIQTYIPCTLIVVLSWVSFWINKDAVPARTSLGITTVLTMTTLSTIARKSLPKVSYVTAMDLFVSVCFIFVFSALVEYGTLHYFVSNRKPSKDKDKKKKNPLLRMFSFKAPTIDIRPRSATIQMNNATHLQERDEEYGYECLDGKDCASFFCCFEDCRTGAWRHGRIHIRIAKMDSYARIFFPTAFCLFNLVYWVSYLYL
Sequence of Gamma-aminobutyric acid receptor subunit alpha-1/alpha-2/beta-2/gamma-2 (P47869 whole entry): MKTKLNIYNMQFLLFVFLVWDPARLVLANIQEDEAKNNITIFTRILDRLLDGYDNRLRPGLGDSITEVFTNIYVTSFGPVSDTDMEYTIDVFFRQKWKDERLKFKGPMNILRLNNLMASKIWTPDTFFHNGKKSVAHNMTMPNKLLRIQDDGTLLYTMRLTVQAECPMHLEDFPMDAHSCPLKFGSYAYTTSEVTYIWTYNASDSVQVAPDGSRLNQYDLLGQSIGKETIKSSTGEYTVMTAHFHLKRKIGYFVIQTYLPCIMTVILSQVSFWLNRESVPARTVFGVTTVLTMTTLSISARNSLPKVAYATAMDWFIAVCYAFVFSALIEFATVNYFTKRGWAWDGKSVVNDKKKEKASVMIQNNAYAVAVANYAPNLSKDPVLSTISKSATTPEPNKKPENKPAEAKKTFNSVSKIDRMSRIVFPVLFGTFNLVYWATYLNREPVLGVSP
Sequence of Melanocortin receptor 3 (P41968 whole entry): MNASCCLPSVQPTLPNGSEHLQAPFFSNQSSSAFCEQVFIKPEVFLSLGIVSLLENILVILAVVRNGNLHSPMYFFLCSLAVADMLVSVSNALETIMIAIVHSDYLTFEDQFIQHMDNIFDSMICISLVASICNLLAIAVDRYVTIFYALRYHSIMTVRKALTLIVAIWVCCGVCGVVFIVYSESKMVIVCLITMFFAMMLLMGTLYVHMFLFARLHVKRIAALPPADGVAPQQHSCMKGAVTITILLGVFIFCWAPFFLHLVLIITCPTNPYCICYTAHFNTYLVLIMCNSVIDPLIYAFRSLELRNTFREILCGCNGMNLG
Sequence of Histamine H3 receptor (Q9Y5N1 whole entry): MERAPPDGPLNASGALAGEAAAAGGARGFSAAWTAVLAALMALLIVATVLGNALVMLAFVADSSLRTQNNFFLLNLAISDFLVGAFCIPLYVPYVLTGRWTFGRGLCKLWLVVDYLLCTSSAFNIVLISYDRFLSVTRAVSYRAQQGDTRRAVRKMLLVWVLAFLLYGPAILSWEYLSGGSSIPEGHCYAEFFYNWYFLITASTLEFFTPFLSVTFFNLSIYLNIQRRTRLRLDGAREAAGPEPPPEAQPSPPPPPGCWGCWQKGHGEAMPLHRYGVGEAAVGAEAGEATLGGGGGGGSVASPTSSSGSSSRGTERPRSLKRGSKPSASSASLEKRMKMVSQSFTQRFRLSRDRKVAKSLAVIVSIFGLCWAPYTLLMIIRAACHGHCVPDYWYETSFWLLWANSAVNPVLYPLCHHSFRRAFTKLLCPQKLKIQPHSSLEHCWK
Sequence of D(3) dopamine receptor (P35462 whole entry): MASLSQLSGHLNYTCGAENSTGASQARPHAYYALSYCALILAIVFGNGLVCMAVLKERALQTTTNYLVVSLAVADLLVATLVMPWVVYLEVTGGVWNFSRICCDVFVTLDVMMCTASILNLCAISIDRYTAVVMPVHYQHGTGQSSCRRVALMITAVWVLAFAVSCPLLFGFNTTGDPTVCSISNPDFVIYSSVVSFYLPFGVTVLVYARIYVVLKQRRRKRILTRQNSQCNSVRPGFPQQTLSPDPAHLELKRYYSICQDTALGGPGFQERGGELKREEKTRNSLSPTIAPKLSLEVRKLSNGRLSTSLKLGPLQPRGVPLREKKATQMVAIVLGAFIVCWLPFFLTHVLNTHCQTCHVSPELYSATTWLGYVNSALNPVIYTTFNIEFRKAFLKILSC
Sequence of Gamma-aminobutyric acid receptor subunit alpha-1 (P62813 whole entry): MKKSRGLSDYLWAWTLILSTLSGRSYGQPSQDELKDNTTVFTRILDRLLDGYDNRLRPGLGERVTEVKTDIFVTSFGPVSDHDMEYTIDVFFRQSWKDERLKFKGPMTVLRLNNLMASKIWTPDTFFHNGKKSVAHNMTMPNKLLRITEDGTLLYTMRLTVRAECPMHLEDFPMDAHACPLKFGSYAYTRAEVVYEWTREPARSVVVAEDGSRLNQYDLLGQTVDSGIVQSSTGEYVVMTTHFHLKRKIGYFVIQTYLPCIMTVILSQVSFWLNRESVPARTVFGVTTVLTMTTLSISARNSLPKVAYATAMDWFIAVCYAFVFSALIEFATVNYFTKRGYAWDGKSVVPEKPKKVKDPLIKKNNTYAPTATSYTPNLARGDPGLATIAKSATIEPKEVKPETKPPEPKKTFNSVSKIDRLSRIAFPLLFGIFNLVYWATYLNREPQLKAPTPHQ
Sequence of 5-hydroxytryptamine receptor 2A (P28223 whole entry): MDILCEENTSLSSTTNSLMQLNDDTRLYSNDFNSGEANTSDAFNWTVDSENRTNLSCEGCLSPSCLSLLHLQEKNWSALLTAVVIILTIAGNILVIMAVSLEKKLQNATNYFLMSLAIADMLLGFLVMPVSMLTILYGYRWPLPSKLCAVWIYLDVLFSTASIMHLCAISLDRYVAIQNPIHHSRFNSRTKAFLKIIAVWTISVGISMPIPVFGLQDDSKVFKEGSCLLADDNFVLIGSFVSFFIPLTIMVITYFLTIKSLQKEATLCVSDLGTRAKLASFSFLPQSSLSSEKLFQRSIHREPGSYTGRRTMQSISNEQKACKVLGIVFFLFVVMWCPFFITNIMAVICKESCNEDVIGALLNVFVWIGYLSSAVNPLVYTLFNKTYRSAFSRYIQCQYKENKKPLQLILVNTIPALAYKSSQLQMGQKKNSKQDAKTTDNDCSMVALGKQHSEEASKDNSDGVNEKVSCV

Molecule: CN(C)c1ccc(C(=C2C=CC(=[N+](C)C)C=C2)c2ccc(N(C)C)cc2)cc1 [GENTIAN VIOLET]
- AC50 [1]: 1.21 µM
- AC50 [2]: > 3 µM

Molecule: Nc1ccc(S(N)(=O)=O)cc1 [SULFANILAMIDE]
- AC50 [3]: > 30 µM

Molecule: HYDROXOCOBALAMIN
- AC50 [4]: > 30 µM
- AC50 [5]: > 30 µM
- AC50 [6]: > 30 µM
- AC50 [7]: > 30 µM
- AC50 [8]: > 30 µM
- AC50 [9]: > 30 µM
- AC50 [10]: > 30 µM
- AC50 [11]: > 30 µM
- AC50 [12]: > 30 µM
- AC50 [13]: > 30 µM
- AC50 [14]: > 30 µM
- AC50 [15]: > 30 µM
